Reference: patent publication US9884037B2, “Pharmaceutical composition containing 8 triglycerides, and preparations and use thereof” (ZHEJIANG KANGLAITE GROUP CO., LTD., priority 2014, dated 2018)
Converted amounts (≈) assume the structure as drawn.

Columns and labels:
[1] = tested on: PANC-1 (human pancreatic cancer cells); test: Inhibition on human tumor cell lines in MTT method in vitro; format: cell-based; conditions: PANC-1, MTT, 48 h
Text: (§1) Experimental Materials and the Preparation Thereof: • (1) Cell lines: PANC-1 (human pancreatic cancer cells), SKOV3 (human ovarian cancer cells), MCF-7 (human breast cancer cells), Bcap-37 (human breast cancer cells), SMMC-7721 (human hepatic cancer cells), HepG-2 (human hepatic cancer cells), A549 (human lung cancer cells) and H460 (human lung cancer cells), storaged and passaged maintainably in Research and Evaluation Center for Pharmacology, Shanghai Institute of Pharmaceutical Industry; • (2) DMEM complete medium supplied with 10% newborn calf serum (GIBCO BRL), 1% of penicillin (100 U/mL)+streptomycin (100 μg/mL); • (3) 0.25% trypsin solution, purchased from Invitrogen Corp. and storaged at −20° C.; • (4) Phosphate buffer (PBS): NaCl 8 g, KCl 0.2 g, Na2HPO4 1.15 g and KH2PO4 0.2 g, dissolved in 1 L double-distilled water and autoclaved at 121° C. for 20 min, then storaged at 4° C.; • (5) MTT (AMRESCO) solution: 5 mg/ml in PBS; • (6) Formazan crystal dissolving solution: SDS 10 g, isobutanol 5 ml and concentrated hydrochloric acid 0.1 ml, dissolved in 100 ml of deionized double distilled water.
(§2) The inhibition effects of samples on the above-mentioned cell lines were detected by using MTT method. The specific procedures were as follows:
(§3) (1) Cell culture: (a) Storaged cells were taken out from the liquid nitrogen, thawed quickly in a 37° C. water bath, then aseptically transferred into 6 ml of cellular medium in a 10 ml centrifugal tube, and centrifuged at 1000 rpm for 5 min. The supernatant was discarded, then the precipitated cells were re-suspensed in 5-6 ml cellular media by pipetting and transferred into a flask in a 37° C. incubator for cell culture; (b) Next day, the flask was taken out from the incubator and the used medium was discarded, then the cells were incubated in 5-6 ml fresh medium in the 37° C. incubator; (c) On the third day, the flask was taken out from the incubator and the used medium was discarded, then 2-3 ml of PBS (pH7.4) was added into the flask with rocking for cleaning it and the used PBS was discarded. Such a cellular cleaning step was repeated once again. 3-5 drops of 0.25% trypsin solution were added into the flask with sloshing, thus well-distributed in it. The flask was capped and placed in a 37° C. incubator for about 3 min, and the separation of cells from the flask wall was observed under the microscope. […]
(§4) (4) Cells in a logarithmic growth stage were trypsinized and washed, then re-suspended in the medium containing 10% calf serum. The number of living cells was counted in Trypan blue dye exclusion method and cell suspensions were adjusted into a density of 2×10^5 cell/ml. […]

[2] = tested on: SMMC-7721 (human hepatic cancer cells); test: as above; format: cell-based; conditions: SMMC-7721, MTT, 48 h
Text: as §1, §2, §3, §4

[3] = tested on: Bcap-37 (human breast cancer cells); test: as above; format: cell-based; conditions: Bcap37, Bcap-37, MTT, 48 h
Text: as §1, §2, §3, §4

[4] = tested on: H460 (human lung cancer cells); test: as above; format: cell-based; conditions: NCI-H460, 48 h
Text: as §1, §2, §3, §4

IL-2 = test: Production of IL-2 in mice bearing cancer (L1210), IL-2 dependent CTLL cell strain; format: in vivo, DBA/2 mice; conditions: 20 mg/kg, iv × 7, mice suffering from L1210 leukemia
Experimental: Each of 60 DBA/2 mice was inoculated subcutaneously with 1×10^4 L1210 leukemia cells of mice. Next day, the mice were grouped randomly into 6 groups (10 mice per group): Lentinan 20 mg/kg, the injection of the invention (6.25 ml/kg, 12.5 ml/kg and 25 ml/kg), solvent control and NS control. Animals were administered, i.v., for 7 days, then sacrificed. Spleens were picked up in aseptic condition. Splenocytes were prepared and adjusted into 1×10^7/ml. To each well of a 24 well plate were added splenocytes cells (2 ml) and Con A (5 μg/ml). After the plate was incubated in a 37° C. incubator under 5% CO2 for 24 h, the supernate was collected. The activity of IL-2 was determined in IL-2 dependent CTLL cell strain by using the method of ^3H-TdR incorporation.

Splenocytes = test: Splenic lymphopoiesis induced by ConA in mice in vitro (3H-TdR incorporation); format: cell-based, C57BL/6 mice; conditions: 100 μl
Experimental: Spleens were picked up from C57BL/6 mice in aseptic condition. Splenocytes were separated and the concentration of cells was adjusted to 1×10^7 cells/ml with RPMI 1640+15% FCS medium. The experiment groups were as follows: the injection of the invention in four concentrations, lentinan (positive control group) in four concentrations, corresponding solvent (blank control I) and medium (blank control II). 100 μl Cells, 100 μl solution of drug/control and 50 μl ConA were added in each well in triplicate. The 96 well microplate was incubated in a 37° C. incubator under 5% CO2 for 48 h. ^3H-TdR (0.5 μci/well) was added and the incubation was continued for 20 h. Cells were collected, and CPM values were determined in a liquid scintillation counter and compared with control groups. It is shown in the results (table 3) that the injection of the invention, as same as lentinan, has obviously facilitated the splenic lymphopoiesis in mice in vitro and the effect is linear dependent to the concentration.

[5] = tested on: splenocytes of mice bearing L1210 leukemia cells; test: Splenic lymphopoiesis in mice bearing L1210 leukemia cells; format: in vivo, DBA/2 mice; conditions: 20 mg/kg, iv × 7, mice bearing L1210
Experimental: Each of 60 DBA/2 mice was inoculated subcutaneously with 1×10^4 L1210 leukemia cells of mice. Next day, the mice were grouped randomly into 6 groups (10 mice per group): Lentinan 20 mg/kg, the injection of the invention (6.25 ml/kg, 12.5 ml/kg and 25 ml/kg), solvent control and NS control. Animals were administered, i.v., for 7 days, then sacrificed. Spleens were picked up in aseptic condition. Spleens were homogenized and splenocytes were counted and adjusted into 1×10^7/ml. Cells (100 μl/well) and medium (100 μl/well) were added into wells of a 96 well microplate in triplicate. The 96 well microplate was incubated in a 37° C. incubator under 5% CO2 for 48 h. Then, ^3H-TdR (0.5 μci/well) was added and the incubation was continued for 20 h. Cells were collected, and CPM values were determined and compared with control groups. […] Lentinan has also shown immuno-enhancement effect.

NK cells [6] = test: Activity of natural killer cells (NK cells) in mice in vitro (inhibition on 3H-TdR incorporation, YAC-1 target cells); format: cell-based, C57BL/6 mice; conditions: 100 μl; for CPM (x ± SD): Splenocytes:YAC-1=100:1, 24 h
Experimental: Method: The activity of NK cells were detected by the inhibition on ^3H-TdR incorporation.
Spleens were picked up from C57BL/6 mice in aseptic condition. Splenocytes, as effector cells, were adjusted to 1×10^6 cells/ml. YAC-1 cells, target cells, which have been cultured for 24 h, were adjusted to 1×10^4 cells/ml. The cells were added into wells of a 96 well microplate (100 μl/well). The experiment groups were as follows: the injection of the invention in four concentrations, lentinan (positive control group) in four concentrations, corresponding solvent (blank control I) and medium (blank control II). To each well of a 96 well microplate were added cells (Splenocytes: YAC-1=100:1) (100 μl), test sample (100 μl) and ^3H-TdR 0.5 μci/well. After being incubated in a 37° C. incubator under 5% CO2 for 24 h, cells were collected, and CPM values were determined. The specific percentage inhibition (Pi), indicating the activity of NK cells, was calculated according to the formula: Pi=(1−CPMExp./CPMcont.)×100%

NK cells [7] = test: Activity of NK cells in mice bearing cancer (L1210); format: in vivo, DBA/2 mice; conditions: 20 mg/kg, iv × 7, mice bearing L1210
Experimental: Each of 60 DBA/2 mice was inoculated subcutaneously with 1×10^4 L1210 leukemia cells of mice. Next day, the mice were grouped randomly into 6 groups (10 mice per group): Lentinan 20 mg/kg (positive control), the injection of the invention (6.25 ml/kg, 12.5 ml/kg and 25 ml/kg), solvent control and NS control. Animals were administered, i.v., for 7 days, then sacrificed. Spleens were picked up in aseptic condition. Splenocytes were prepared and adjusted into 1×10^6/ml. The activity of NK cells was detected by using the inhibition on ^3H-TdR incorporation. To wells of a 96 well microplate were added splenocytes cells (effector cells) 100 μl/well, YAC-1 cells (target cells, 1×10^4 cells/ml) 100 μl/well and ^3H-TdR 0.5 μci/well, in triplicate. After being incubated in a 37° C. incubator under 5% CO2 for 24 h, cells were collected, and CPM values were determined. The specific percentage inhibition (Pi), indicating the activity of NK cells, was calculated according to the above formula.

Row | Compound | IC50 [1] [µg/mL] | IC50 [2] [µg/mL] | IC50 [3] [µg/mL] | IC50 [4] [µg/mL] | CPM (x ± SD) (production of IL-2) (IL-2) [CPM] | CPM (x ± SD) (Splenocytes; (1:1) dilution) [CPM] | CPM (x ± SD) (Splenocytes; (1:2) dilution) [CPM] | CPM (x ± SD) (Splenocytes; (1:4) dilution) [CPM] | CPM (x ± SD) (Splenocytes; (stock solution)) [CPM] | CPM (x ± SD) [5] [CPM] | Pi % (specific percentage inhibition, activity of NK cells) (NK cells [6]; (1:1) dilution) [%] | CPM (x ± SD) (NK cells [6]; (1:1) dilution) [CPM] | Pi % (specific percentage inhibition, activity of NK cells) (NK cells [6]; (1:2) dilution) [%] | CPM (x ± SD) (NK cells [6]; (1:2) dilution) [CPM] | Pi % (specific percentage inhibition, activity of NK cells) (NK cells [6]; (1:4) dilution) [%] | CPM (x ± SD) (NK cells [6]; (1:4) dilution) [CPM] | Pi % (specific percentage inhibition, activity of NK cells) (NK cells [6]; (stock solution)) [%] | CPM (x ± SD) (NK cells [6]; (stock solution)) [CPM] | CPM (x ± SD) (NK cells [7]) [CPM] | Pi (%) (activity of NK cells) (NK cells [7])
1 | CC(=O)O[C@H]1C(=O)[C@@]2(C)[C@H]([C@H](OC(=O)c3ccccc3)[C@]3(O)C[C@H](OC(=O)[C@H](O)[C@@H](NC(=O)c4ccccc4)c4ccccc4)C(C)=C1C3(C)C)[C@]1(OC(C)=O)CO[C@@H]1C[C@@H]2O [Taxol] | 0.44 (≈ 0.515 µM) | 0.41 (≈ 0.48 µM) | 0.28 (≈ 0.328 µM) | 0.49 (≈ 0.574 µM) |  |  |  |  |  |  |  |  |  |  |  |  |  |  |  | 
2 | Lentinan |  |  |  |  | 2750 ± 123 | 7700 ± 747 | 11025 ± 1133 | 11555 ± 1279 | 7420 ± 957 | 7410 ± 770 | 33.5 | 8130 ± 930 | 35.5 | 7892 ± 995 | 54.5 | 5544 ± 85 | 29.5 | 8625 ± 1135 | 5660 ± 260 | 54.5
